In series [1] the target is T1, ALKBH5 (Homo sapiens, UniProt Q6P6C2).
T1 construct: SUMO (N); His10 (N); made in house; host or cells: E. coli BL21
Kind of series: Fluorescence enzymatic inhibition assay (m6A7-Broccoli / DFHBI-1T), ALKBH5. In kind it is biochemical. Particulars: for IC50: Permeability Data and IC50 tables the 33rd table/the 34th table, unit inferred; for inhibition of ALKBH5 at the highest concentration measured: highest concentration 40 μM. On the procedure: (§1) E. coli BL21 competent cells (New England Biolabs) were transformed with pET28-SUMO-His10-FTO plasmid (a generous gift from the Jaffrey lab) by heat shock and spread on a LB Kanamycin agar plate, then incubated overnight at 37° C. 2-3 colonies were picked and transferred to 5 mL of LB media treated with kanamycin (0.5 mg mL^−1 final concentration), then grown overnight shaking at 37° C. The overnight culture was then transferred to 2 L of LB kanamycin media and incubated at 37° C. until OD 0.8. The culture was cooled at 4° C. for 20 mins and induced with 0.5 mM isopropyl β-D-1-thiogalactopyranoside (IPTG), then grown shaken at 16° C. Cell pellets were collected by centrifugation (5,000 g for 10 min at 4° C.) and the supernatant was discarded. The pellets were resuspended in B-PER Bacterial Protein Extraction Reagent (6 mL per gram) with DNase 1 (5 U per mL, RNase-free) and incubated at 4° C. for 1 hour. The suspension was centrifuged at 10,000 g for 20 min and the supernatant was transferred to a Talon Metal Affinity Resin column that had been pre-equilibrized with binding buffer (50 mM NaH2PO4 pH 7.2, 300 mM NaCl, 20 mM imidazole, 1 mM β-mercaptoethanol in RNase-free water). […] The eluant was combined and transferred to a Slyde-A-Lyzer Dialysis Cassette (20,000 MWCO, Thermo Scientific) and dialyzed overnight at 4° C. against dialysis buffer (50 mM Tris-HCl pH 7.4, 100 mM NaCl, 5 mM B-mercaptoethanol, 5% (v/v) glycerol in RNase-free water). […] ALKBH5 was expressed and purified from pET28-SUMO-His10-ALKBH5 plasmid by the same procedure described above.
(§2) Inhibitors were added in concentrations ranging from 0.008-40 μM; all inhibitors were dissolved in DMSO and added to a final concentration of 0.2% DMSO. […] After incubation at room temperature for 2 hours, the plates were left at 4° C. overnight (16 hours) to allow DFHBI-1T to bind to A7-Broccoli RNA. […] Sigmoidal dose-response curves were fitted in GraphPad Prism 6. All assays were performed in triplicate, with additional repetitions added as necessary.

Series [2] addresses T2, FTO (Homo sapiens, UniProt Q9C0B1).
T2 construct: SUMO (N); His10 (N); made in house; host or cells: E. coli BL21
The series can be described thus: Fluorescence enzymatic inhibition assay (m6A7-Broccoli / DFHBI-1T), FTO. Particulars: for precipitation in assay buffer: dose response could not be determined. Format: biochemical. As for the experimental part:
In order to determine their efficacy as FTO inhibitors, the compounds were screened by a fluorescence enzymatic inhibition assay developed previously by the Jaffrey lab.^44 Briefly, a nonfluorescent methylated RNA substrate termed “m6A7-Broccoli” is incubated with FTO in the presence of 2-oxoglutarate (300 μM), (NH4)2Fe(SO4)2·6H2O (300 μM), and L-ascorbate (2 mM) for 2 hours at room temperature in reaction buffer (50 mM NaHEPES, pH 6).
as §1, §2

Series [3] has as its system TS576 glioblastoma stem cells. The series can be described thus: Tumorosphere (neurosphere) formation assay, TS576. In kind it is cell-based, human. Particulars: TS576, 30 μM, 2 days, vs vehicle control. As for the experimental part: To understand the effects of our FTO inhibitors on the self-renewal properties of GSCs, tumorospheres cultured from the patient-derived GSC line TS576 were treated with 30 μM of FTO-04, FTO-10, FTO-11, or FTO-12 (FIG. 29A-29B; cell line gifted from the Furnari lab).^45, 46 The GSCs were cultured in sphere-forming assays for 24 hours, then treated with either inhibitors or DMSO control for 2 days. The size of the tumorospheres was calculated using ImageJ.
Early passaged GSCs were used to understand the efficacy of ALK-04 on the self-renewal capacity of GSCs by tumorsphere-formation assay as described earlier^10, 11. In brief, GSCs were seeded at 4×10^4 cells in 24 well plate and cultured for 3 days followed by treatment with ALK-04 inhibitors at 20 μM daily for 3 days. After 3 days of treatment the images of the tumorospheres were imaged with phase contrast microscope and size was measured with Image J, to understand the effects of drugs on the self-renewal of GSCs on sphere formation. This process was also repeated for healthy neural stem cells (hNSCs) treated daily with 20 μM ALK-04 for three days to assess the therapeutic ratio.

The test system of series [4] is MOLT-4. The series can be described thus: High Throughput Screen for growth inhibition, MOLT-4. In kind it is cell-based. Particulars: MOLT-4, Leukemia; 3 days; unit not given. On the procedure:
(§3) The High Throughput Screen method is described below. The endpoint readout of this assay is based upon quantitation of ATP as an indicator of viable cells.
(§4) Cell lines that have been preserved in liquid nitrogen are thawed and expanded in growth media (see Table 1-3). Once cells have reached expected doubling times, screening begins. Cells are seeded in growth media in black 384-well tissue culture treated plates at 500-1500 cells per well (as noted in Analyzer). Cells are equilibrated in assay plates via centrifugation and placed at 37° C. 5% CO2 for twenty-four hours before treatment. […] Assay plates are incubated with compound for 3 days and are then analysed using CellTiter-Glo 2.0. All data points are collected via automated processes and are subject to quality control and analysed using Horizon's software.
(§5) Growth Inhibition (GI) is utilized as a measure of cell growth. The GI percentages are calculated by applying the following test and equation: If T<V_0: 100*(1−(T−V_0)/V_0) If T≥V_0: 100*(1−(T−V_0)/(V−V_0)) where T is the signal measure for a test article, V is the untreated/vehicle-treated control measure, and Vo is the untreated/vehicle control measure at time zero (also colloquially referred as T0 plates). This formula is derived from the Growth Inhibition calculation used in the National Cancer Institute's NCI-60 high throughput screen. For the purposes of this report, all data analysis was performed in Growth Inhibition (except where noted).
(§6) A GI of 100% represents complete growth inhibition (cytostasis) and in this case cells treated with compound for 3 days would have the same endpoint reading as TO control cells. A GI of 200% represents complete death (cytotoxicity) of all cells in the culture well and in this case the T reading at 3 days will be lower than the TO control (values near or at zero).
(§7) Horizon also provides Inhibition as a measure of cell viability. Inhibition levels of 0% represent no inhibition of cell growth by treatment. Inhibition of 100% represents no doubling of cell numbers during the treatment window. Both cytostatic and cytotoxic treatments can yield an Inhibition percentage of 100%. Inhibition percentage is calculated as the following: I=1−T/U where T is the treated and U is the untreated/vehicle control.

The test system of series [5] is LUDLU-1. The series can be described thus: High Throughput Screen for growth inhibition, LUDLU-1. Format: cell-based. Particulars: LUDLU-1, LUSC; 3 days; unit not given. As for the experimental part: as §3, §4, §5, §6
(§8) Horizon also provides Inhibition as a measure of cell viability. Inhibition levels of 0% represent no inhibition of cell growth by treatment. […] Inhibition percentage is calculated as the following: I=1−T/U where T is the treated and U is the untreated/vehicle control.

Series [6] relates to AGS. The series can be described thus: High Throughput Screen for growth inhibition, AGS. Format: cell-based. The conditions noted are these: Gastric, 3 days, unit not given. On the procedure: as §3, §4, §5, §6, §7
Series [7] deals with HEC-50B. Kind of series: High Throughput Screen for growth inhibition, HEC-50B. In kind it is cell-based. The conditions noted are these: Endometrial (uterine), 3 days, unit not given. As for the experimental part:
as §3, §4
(§9) Growth Inhibition (GI) is utilized as a measure of cell growth. The GI percentages are calculated by applying the following test and equation: If T<V_0: 100*(1−(T−V_0)/V_0) If T≥V_0: 100*(1−(T−V_0)/(V−V_0)) where T is the signal measure for a test article, V is the untreated/vehicle-treated control measure, and Vo is the untreated/vehicle control measure at time zero (also colloquially referred as T0 plates). This formula is derived from the Growth Inhibition calculation used in the National Cancer Institute's NCI-60 high throughput screen. […]

The subject of series [8] is BICR16. The series can be described thus: High Throughput Screen for growth inhibition, BICR16. In kind it is cell-based. Particulars: BICR16, Head and Neck; 3 days; unit not given. On the procedure: as §3, §4, §5, §6, §8
Series [9] concerns Kasumi-1. The series can be described thus: High Throughput Screen for growth inhibition, Kasumi-1. In kind it is cell-based. Particulars: Kasumi-1, Leukemia; 3 days; unit not given. On the procedure:
as §3, §4, §9

The test system of series [10] is HCT-116. The series can be described thus: High Throughput Screen for growth inhibition, HCT-116. Format: cell-based. Particulars: HCT-116, Colon; 3 days; unit not given. On the procedure: as §3, §4, §9
Series [11] deals with SW480. Kind of series: High Throughput Screen for growth inhibition, SW480. The conditions noted are these: SW480, Colon; 3 days; unit not given. Format: cell-based. On the procedure:
as §3, §4, §9

Series [12] relates to SUM159PT. Kind of series: High Throughput Screen for growth inhibition, SUM159PT. In kind it is cell-based. Particulars: Breast, 3 days, unit not given. As for the experimental part:
as §3, §4, §9

T1 sequence (Q6P6C2 whole entry): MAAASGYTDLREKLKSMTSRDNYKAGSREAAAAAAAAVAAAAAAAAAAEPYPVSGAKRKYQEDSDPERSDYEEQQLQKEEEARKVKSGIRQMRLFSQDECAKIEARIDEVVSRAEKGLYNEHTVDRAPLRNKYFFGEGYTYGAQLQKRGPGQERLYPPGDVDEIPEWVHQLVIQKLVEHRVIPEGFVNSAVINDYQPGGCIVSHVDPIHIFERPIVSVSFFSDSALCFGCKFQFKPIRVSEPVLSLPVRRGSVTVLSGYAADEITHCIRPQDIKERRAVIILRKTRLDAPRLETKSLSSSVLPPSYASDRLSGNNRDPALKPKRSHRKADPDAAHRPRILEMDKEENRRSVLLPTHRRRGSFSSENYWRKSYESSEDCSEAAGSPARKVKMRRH
T2 sequence (Q9C0B1 whole entry): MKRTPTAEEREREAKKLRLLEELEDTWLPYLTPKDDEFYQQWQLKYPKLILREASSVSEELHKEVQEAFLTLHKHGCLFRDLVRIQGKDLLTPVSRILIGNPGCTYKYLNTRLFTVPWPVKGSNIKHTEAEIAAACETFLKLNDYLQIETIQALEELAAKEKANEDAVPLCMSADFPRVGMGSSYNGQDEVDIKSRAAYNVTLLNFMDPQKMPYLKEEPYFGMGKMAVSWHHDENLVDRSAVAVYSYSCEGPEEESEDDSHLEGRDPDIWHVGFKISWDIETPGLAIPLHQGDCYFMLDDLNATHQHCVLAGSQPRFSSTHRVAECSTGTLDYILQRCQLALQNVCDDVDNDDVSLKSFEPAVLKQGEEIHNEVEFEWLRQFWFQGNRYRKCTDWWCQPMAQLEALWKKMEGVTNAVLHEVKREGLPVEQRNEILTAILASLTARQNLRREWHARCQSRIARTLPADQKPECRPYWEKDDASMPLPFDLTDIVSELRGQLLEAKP

With `COC(=O)C1COC(c2ccc(OC)cc2)N1` (centres unmarked) [ALK-12], inhibition in series [1] was half-maximal at 16.7 ± 2.6 µM (IC50). `COC(=O)C1COC(c2ccccc2F)N1` (centres unmarked) [ALK-14]: in [1], half-maximal inhibition (IC50) was put at 29.8 ± 2.9 µM. With `COC(=O)C1COC(c2ccccc2OC)N1` (centres unmarked) [ALK-15], the IC50 (in general, the concentration at which inhibition is half-maximal) in series [1] was 18.2 ± 2.3 µM. In the case of `Oc1ccc2cc(-c3cncnc3)ccc2c1` [FTO-1, 6-(pyrimidin-5-yl)naphthalen-2-ol], in series [1], the “inhibition of ALKBH5 at the highest concentration measured” value (from here on “inhibition of ALKBH5”) is given as “no measurable inhibition”.

Regarding `COc1ncc(-c2cccc(OCc3ccccc3)c2)cn1` [FTO-3, 5-(3-(benzyloxy)phenyl)-2-methoxypyrimidine], in series [2], the “precipitation in assay buffer” value is “significant precipitation in assay buffer”. As to `COc1ccc2cc(-c3cncnc3)ccc2c1` [FTO-5, 5-(6-methoxynaphthalen-2-yl)pyrimidine], in series [1], the “inhibition of ALKBH5” value is listed as “no measurable inhibition”.

For `Cc1ccc2cc(-c3cncnc3)ccc2n1` [FTO-7, 2-methyl-6-(pyrimidin-5-yl)quinoline], the “inhibition of ALKBH5” value in [1] is recorded as “no measurable inhibition”. With `Nc1ncc(-c2cccc(Nc3ccccc3)c2)cn1` [FTO-9, 5-(3-(phenylamino)phenyl)pyrimidin-2-amine], in series [2] (ratio of potency towards FTO and ALKBH5), the “preference (selectivity) between FTO and ALKBH5” value was “almost ten times more potent towards ALKBH5”.

For `Nc1ncc(-c2ccc3cc(O)ccc3c2)cn1` [FTO-10, 6-(2-aminopyrimidin-5-yl)naphthalen-2-ol], in series [3], the size of tumorospheres result is recorded as “significant reduction in size of the tumorospheres”. With `COc1ncc(-c2ccc3nc(C)ccc3c2)cn1` [FTO-11, 6-(2-methoxypyrimidin-5-yl)-2-methylquinoline], the size of tumorospheres entry in series [3] is “significant reduction in size of the tumorospheres”.

Consider `COc1ccc2cc(-c3cnc(N)nc3)ccc2c1` [FTO-12, 5-(6-methoxynaphthalen-2-yl)pyrimidin-2-amine], for which, in series [1], the “inhibition of ALKBH5” value is “no measurable inhibition”. Besides, in series [3], the size of tumorospheres entry is given as “significant reduction in size of the tumorospheres”. With `COCCNc1ncc(-c2ccc3cc(OC)ccc3c2)cn1` [FTO-15, N-(2-methoxyethyl)-5-(6-methoxynaphthalen-2-yl)pyrimidin-2-amine], the “precipitation in assay buffer” value in [2] was “significant precipitation in assay buffer”. Turning to `COCCNc1ncc(-c2ccc(OCc3ccccc3)cc2)cn1` [FTO-18, 5-(4-(benzyloxy)phenyl)-N-(2-methoxyethyl)pyrimidin-2-amine], in series [1], the “inhibition of ALKBH5” value was “no measurable inhibition”.

On to `c1ccc(-c2ccc(CNCC3(N4CCCC4)COC3)s2)cc1` [TR-FTO-38], for which the “Growth Inhibition (GI) Values” came out at 24.366 in [4]; 31.952 in [5]; 23.3 in series [6]; 14.018 in series [7]; 29.832 in series [8]. As to `Clc1ccccc1-c1ccc(CNCC2(N3CCCC3)COC2)o1` [TR-FTO-43 N], the “Growth Inhibition (GI) Values” is given as 18.136 in [9]; 24.595 in series [4]; 28.561 in series [5]; 21.005 in series [6]; 31.451 in series [10]; 28.499 in series [11]. Also, the “Growth Inhibition (GI) Values” in [8] came to 25.212.

In the case of `FC1CCN(C2(CNCc3ccc(-c4ccccc4Cl)o3)COC2)C1` (centres unmarked) [TR-FTO-49 N], the “Growth Inhibition (GI) Values” in [4] stood at 27.521. Regarding `c1cncc(CNc2ccc(CNC3CC3)cn2)c1` [TR-YTH-05], the results for the “Growth Inhibition (GI) Values” in series [6] and in series [12] were 6.35 and 8.629, respectively.
